In a compilation of properties of binary mixtures (doi:10.1016/j.molliq.2009.05.001) one finds viscosity and electrical conductivity data, which are given here for two compounds.

For orientation: viscosity means the internal friction of a fluid under shear. A higher viscosity goes with a thick fluid.

The data set can be described thus: xn = mol fraction of the nth substance listed. The note with it: 101 kPa; for viscosity: 298.1 K; for electrical conductivity: 298.15 K.

As to `CC[n+]1ccn(C)c1.F[B-](F)(F)F` + CC[n+]1ccn(C)c1.N#C[N-]C#N, where the note is “x1 = 1”, the viscosity is given as 36.8 mPa·s and the electrical conductivity worked out at 1.55 S/m.

With `CC[n+]1ccn(C)c1.N#C[N-]C#N` + CC[n+]1ccn(C)c1.F[B-](F)(F)F, the viscosity reads like this: (x2 = 0) 17.4 mPa·s; (x2 = 0.2164) 19.7 mPa·s; (x2 = 0.3218) 21.4 mPa·s; (x2 = 0.474) 23 mPa·s. Also, the electrical conductivity runs as follows: (x2 = 0) 2.83 S/m; (x2 = 0.0448) 2.79 S/m; (x2 = 0.2164) 2.61 S/m; (x2 = 0.3218) 2.49 S/m; (x2 = 0.474) 2.3 S/m; (x2 = 0.6254) 2.1 S/m. Further, the electrical conductivity runs as follows: (x2 = 0.7856) 1.87 S/m; (x2 = 0.9447) 1.64 S/m.
